Assay results published in publication PMC8282878, “Enhanced mosquitocidal efficacy of pyrethroid insecticides by nanometric emulsion preparation towards Culex pipiens larvae with biochemical and molecular docking studies” (Journal of the Egyptian Public Health Association, 2021).
≈ marks a conversion by molar mass, not a printed value. Where “and” joins values, the source holds several entries; their conditions need not be identical. Identical values can stand only once. Like-named read-outs stand apart in the source and are kept apart here.

Legend:
[1] = system: adenosine triphosphatase (ATPase); assay: ATPase assay in homogenate of surviving treated larvae; assay type: biochemical, Culex pipiens; conditions: larvae 24 h after treatment with LC50, untreated 1.40
Procedure: ATPase activity was performed according to Koch’s method. The reaction mixture, which contained 400 mM Na^+, 20 mM K^+, 5 mM Mg ^+, and 5 mM ATP, was prepared, and 200 μL of the crude enzyme was added to this mixture. Then, the volume was completed to 950 μL with Tris-HCl buffer (pH 7.4). After 10 min incubation at 37 °C, the reaction was stopped with 200 μL of TCA. A fresh color reagent (5 g ferrous sulfate in 10 mL ammonium molybdate solution prepared in 10 N sulfuric acid) was added to the reaction mixture. The absorbance of the developed blue color was measured at 740 nm, and the enzyme activity was calculated as OD740 min^−1 mg protein^−1.

[2] = system: freshwater green alga Raphidocelis subcapitata; assay: whole plant or invertebrate; conditions: for EC50: Raphidocelis subcapitata, 96 h, read-out: 96 h EC50 (95% confidence limits); for NOEC: no observed effect concentration on algal growth rate, NOEC = EC/10
Procedure: The freshwater green alga Raphidocelis subcapitata was obtained from the Faculty of Science; Mansoura University, Egypt. The stock culture was maintained in 250-mL borosilicate Erlenmeyer flasks containing culture medium at 24 ± 2 °C, under a continuous white fluorescent light of 3000–4000 lux, and manually shaken twice a day. The axenic culture was maintained for the provision of a continuous supply of “healthy” cells for the tests in a standard algal assay medium (AAM) as described in Miller et al..
An acute algal growth inhibition test was conducted using different concentrations of each insecticide in sterile AAM in a final volume of 50 mL. Tested concentrations of a pesticide were prepared from stock solutions on an arithmetic progression covering an expected range of toxicity from 0 to 90%. Stock solutions of technical insecticides were prepared in 1% DMSO and a corresponding control was included. Stock solutions of the EC and NE were prepared. Algal suspensions were exposed to different concentrations (0.0005–500 mg/L) prepared in the same medium of algae culture. All assays were conducted in triplicate. An inoculum of the exponentially-growing culture of R. subcapitata (harvested from 4–7 days stock culture) was prepared no more than 2–3 h before the beginning of the test. Initial cell density for the growth inhibition test was 10,000 cells/ml in both test and control flasks. Zero-time begins at inoculation of all flasks with the algal cells followed by incubation for 96 h in a temperature-controlled (25 °C) orbital shaker set at 100 rpm under continuous illumination via white fluorescent lamps. After 96 h, algal growth in terms of viable cell concentration was examined in a Neubauer hemocytometer using a phase-contrast microscope. Growth rate inhibition of the alga was used as the endpoint in this assessment. The percent inhibition values were calculated after 96 h, and the median effective concentration (EC50) values were calculated from the probit analysis with 95% confidence limits. The no observed effect concentration (NOEC) after algal exposure to each tested insecticide was calculated by the formula: NOEC = EC/10 [31]. Furthermore, the hazard statement of each tested insecticide was estimated according to UNECE GHS (2019).
Statistical analysis was performed using the IBM SPSS software version 25.0 (SPSS, Chicago, IL, USA). Mortality percentages were calculated for each treatment and corrected using Abbott’s equation [34]. Means and standard error (SE) were obtained from three independent replications performed for each treatment. The log dose-response (LdP) lines were used in the determination of the LC50 values for the mosquito’s bioassay and EC50 values for the algal bioassay according to the probit analysis. The least-square regression analysis was used to determine the 95% confidence limits. Analysis of variance (ANOVA) of the biochemical data was conducted and means property values were separated (p ≤ 0.05) with Student-Newman-Keuls (SNK).

Culex pipiens larvae = assay: Toxicity assay against C. pipiens larvae (WHO larval bioassay); assay type: in vivo; conditions: for LC50: Culex pipiens
From the text: A susceptible strain of C. pipiens culture was obtained from Research Institute of Medical Entomology, Ministry of Health, Dokki, Giza, Egypt, and reared in High Institute of Public Health insectary, Alexandria University, Alexandria, Egypt. The Larvae were fed on biscuits [containing wheat flour and yeast powder mixed with milk powder (10: 1: 1, w/w, respectively)] until pupation in shallow trays containing 2–3 L of de-chlorinated water. Male adults were fed on 30% sucrose solution, and females were fed on pigeon blood four times a week in adult cages. […] The egg rafts were transferred from adult cages to white trays containing de-chlorinated water for egg hatch.
According to the World Health Organization, the larval bioassay was performed to compare the effect of nanoemulsions of selected pyrethroids with their active ingredient and commercial EC formulations on the C. pipiens larva recommendations. Third instar larvae were used in the evaluation by a direct contact method. The three forms of tested insecticides (technical, commercial EC formulation, and nanoemulsion) were tested to obtain the LC50 values. Technical pyrethroids were dissolved in DMSO and mixed with Tween-80 (0.05%), while the EC and nanoemulsions were dissolved in distilled water. Different concentrations ranging from 0.5 to 500 μg/L were tested in three replicates. Twenty C. pipiens larvae were put into plastic cups containing 100 mL of de-chlorinated water. The larvae were treated separately with Tween 80 or DMSO, and larvae without any treatment were maintained as control. The larvae’s morbidity and mortality were verified and recorded based on the larvae’s uncoordinated movement after investigating the cervical region with a needle.

[3] = system: glutathione-S-transferase (GST); conditions: larvae 24 h after treatment with LC50, untreated 2.70
Procedure: The homogenate was centrifuged at 5000 rpm for 20 min at 4°C. The supernatant was used immediately for enzymatic assay or stored at – 20 °C. Total protein was determined according to Lowry et al.’s [23] method, and the concentrations were calculated by comparing with the standard curve of BSA.
GST assay was performed using reduced glutathione (2.5 mM) by Saint-Deniset et al. [26]. The assay mixture contained 100 μL of 1.5 mM CDNB, 200 μL of reduced glutathione, and 1.5 ml of pH 7.4 phosphate buffer. A total of 200 μL of the enzyme was added to the above mixture, shaken gently, and incubated for 15 min at 37 °C. The absorbance was recorded at 340 nm using a UV/Visible spectrophotometer (Alpha-1502. Laxco Inc, USA). One unit of enzyme activity attributed to the quantity of conjugated enzyme with 1 mmol of GSH per min. The enzyme activity was expressed as OD340 min^−1 mg protein^−1.

carboxylesterase (CaE) = assay: CaE assay in homogenate of surviving treated larvae; assay type: biochemical, Culex pipiens; conditions: larvae 24 h after treatment with LC50, untreated 3.31
Procedure: CaE activity was determined according to Van Asperen’s method, which used α-naphthyl acetate as a substrate. The assay mixture contained 50 μL of homogenate enzyme, 2.1 mL of 50 mM sodium phosphate buffer (pH 7.4), and 25 μL of 5 mM α-naphthyl acetate solution. The mixture incubation was done at 37 °C for 15 min. […] The absorption was measured at 555 nm. The enzyme activity was expressed as OD555 min^−1 mg protein^−1.

[4] = system: C. tritaeniorhynchus larvae; design: method as in PMID 28245893; conditions: cited from earlier work
[5] = cited from earlier work

SMILES | EC50 [2] [µg/mL] | NOEC [2] [mg/L] | Slope ± SE of the concentration mortality regression line (Culex pipiens larvae; 24 h exposure) | Slope ± SE of the concentration mortality regression line (Culex pipiens larvae; 48 h exposure) | LC50 (Culex pipiens larvae; 24 h) [µg/mL] | LC50 (Culex pipiens larvae; 48 h) [µg/mL] | Specific activity ± SE, CaE (carboxylesterase (CaE)) [OD mg protein^−1 min] | also measured
CC1(C)[C@H](C(=O)O[C@H](C#N)c2cccc(Oc3ccccc3)c2)[C@@H]1/C=C(\Cl)C(F)(F)F (racemic) [Lambda-cyhalothrin, lambda-cyhalothrin] | 33.9 (≈ 75.3 µM) | 3.389 | 1.47 ± 0.09 | 1.30 ± 0.09 | 0.027 (≈ 0.06 µM) | 0.018 (≈ 0.04 µM) | 1.51 ± 0.09 | Specific activity ± SE, ATPase ([1]; listed as Lambda-cyhalothrin T): 0.62 OD mg protein^−1 min and 0.62 ± 0.05 OD mg protein^−1 min; Specific activity ± SE, GST ([3]; listed as Lambda-cyhalothrin T): 4.57 OD mg protein^−1 min and 4.57 ± 0.48 OD mg protein^−1 min
CC1(C)C(C=C(Cl)Cl)C1C(=O)OC(C#N)c1cccc(Oc2ccccc2)c1 (stereo not drawn) [Alpha-cypermethrin, alpha-cypermethrin] | 69.3 (≈ 167 µM) | 6.932 | 2.47 ± 0.15 | – | 0.043 (≈ 0.103 µM) | 0.04 (≈ 0.0961 µM) | 5.06 ± 0.15 | Specific activity ± SE, ATPase ([1]; listed as Alpha-cypermethrin T): 0.86 OD mg protein^−1 min and 0.86 ± 0.02 OD mg protein^−1 min; Specific activity ± SE, GST ([3]; listed as Alpha-cypermethrin T): 5.31 OD mg protein^−1 min and 5.31 ± 0.70 OD mg protein^−1 min
CC1(C)[C@H](C(=O)O[C@H](C#N)c2cccc(Oc3ccccc3)c2)[C@@H]1C=C(Br)Br [Deltamethrin, deltamethrin] | > 100 | > 10 | 2.23 ± 0.13 | 2.12 ± 0.13 | – | – | – | Specific activity ± SE, ATPase ([1]; listed as Deltamethrin T): 0.69 OD mg protein^−1 min and 0.69 ± 0.02 OD mg protein^−1 min; LC50 (Culex pipiens larvae; third instar larvae, 24 h exposure, read-out: LC50): 0.028 µg/mL (≈ 0.0554 µM); LC50 (Culex pipiens larvae; third instar larvae, 48 h exposure, read-out: LC50): 0.025 µg/mL (≈ 0.0495 µM); Specific activity ± SE, GST [3]: 5.49 ± 0.60 OD mg protein^−1 min; Specific activity ± SE, CaE (carboxylesterase (CaE); listed as Deltamethrin T): 4.53 OD mg protein^−1 min and 3.44 ± 0.19 OD mg protein^−1 min
CC1(C)C(C=C(Cl)Cl)C1C(=O)OCc1cccc(Oc2ccccc2)c1 (centres unmarked) [Permethrin, permethrin] | 14.9 (≈ 38.2 µM) | 1.494 | 1.36 ± 0.089 | 1.26 ± 0.08 | 0.322 (≈ 0.823 µM) | 0.225 (≈ 0.575 µM) | 2.31 ± 0.09 | Specific activity ± SE, ATPase ([1]; listed as Permethrin T): 0.64 OD mg protein^−1 min and 0.64 ± 0.00 OD mg protein^−1 min; LC50 (Culex pipiens larvae; read-out: LC50 range): 0.127 to 0.322 µg/mL (≈ 0.325 to 0.823 µM); Specific activity ± SE, GST ([3]; listed as Permethrin T): 6.32 OD mg protein^−1 min and 6.32 ± 0.59 OD mg protein^−1 min
CC1(C)C(C=C(Cl)Cl)C1C(=O)OCc1cccc(Oc2ccccc2)c1 (centres unmarked) [bulk permethrin, permethrin] | – | – | – | – | – | – | – | LC50 [4]: 0.442 µg/mL (≈ 1.13 µM)
C[n+]1ccc(-c2cc[n+](C)cc2)cc1 [paraquat] | – | – | – | – | – | – | – | 96 h EC50 [5]: 0.48 µg/mL
